The target of one test is T1, SCD5 (Homo sapiens, UniProt Q86SK9).
T1 construct: host or cells: S. cerevisiae ole1Δ strain (W303 pdr1Δ pdr3Δ background), plasmid pRS316 with TDH3 promoter and CYC1 terminator
T1 sequence (Q86SK9 1-330): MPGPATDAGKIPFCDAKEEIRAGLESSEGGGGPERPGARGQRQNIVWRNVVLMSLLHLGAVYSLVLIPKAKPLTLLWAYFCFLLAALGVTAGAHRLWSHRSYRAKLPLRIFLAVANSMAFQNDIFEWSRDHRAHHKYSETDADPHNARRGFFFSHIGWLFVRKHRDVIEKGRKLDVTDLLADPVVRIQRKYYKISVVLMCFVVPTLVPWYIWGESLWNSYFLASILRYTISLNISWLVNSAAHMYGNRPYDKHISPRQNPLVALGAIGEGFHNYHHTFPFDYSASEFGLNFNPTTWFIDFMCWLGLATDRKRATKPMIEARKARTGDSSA
In words: Growth inhibition of humanized yeast strain expressing SCD5 as sole desaturase. The class given is cell-based. Particulars: humanized yeast strain expressing SCD5. How it is done:
Strain oleΔ (yeast ole1 deletion mutant) was constructed by deleting OLE1 with NAT-MX6 in BY4741, amplifying the deletion cassette from the genomic DNA of the resulting strain with primers flanking the ORF by 1000 bp upstream and downstream, transforming the resulting deletion cassette into W303 pdr1Δ pdr3Δ, and plating transformants on YPD media containing G418 (200 μg/mL) and nourseothricin ([…]) with 0.01% TWEEN®-20 and 0.5 mM oleic and palmitoleic acids.
The coding sequence of yeast OLE1 was also cloned into this plasmid). These clones were then transformed into the ole1Δ strain and plated on CSM-Ura media (CSM lacking uracil) with 2% glucose (w/v) and independent colonies were isolated and amplified.
All compound profiling experiments were performed using the same basic protocol. Different genetic backgrounds (e.g., gene deletions) or conditions (e.g., addition of oleic and palmitoleic acid) were replaced as indicated below.
Yeast were cultured using standard techniques in complete synthetic media (CSM) and yeast nitrogen base supplemented with 2% (w/v) carbon source (glucose, raffinose, or galactose) to regulate the expression of the toxic disease protein. An initial starter culture was inoculated in 3 mL CSM-Glucose media and incubated overnight in a 30° C. shaker incubator (225 rpm). Saturated morning cultures were then diluted 1:20 in fresh CSM-Raffinose media and grown for 6 h to an OD600 (optical density) of ˜0.4-0.8 at 30° C. with shaking.
Compound administration was performed in two separate steps. First, 15 μL of CSM-Galactose (induces expression of toxic protein) was dispensed into clear 384 well assay plates using a MULTIDROP™ Combi reagent dispenser. […] The cultures described above were then diluted to a 2× concentration (0.03 and 0.08 for alpha-synuclein and ApoE, final ODsoo of 0.015 and 0.04) in CSM-Galactose. For wild-type and Ole1/SCD1/SCD5 plasmid-containing strains, the 2× cell density was 0.02. […] For 96-well assays (FIGS. 1A and 1B), compound dilutions in DMSO were generated in 96 well plates and 1 μL was manually pipetted into 96 well clear bottom assay plates.
For experiments using a plasmid-borne copy of Ole1, SCD1, or SCD5 (FIGS. 3B, 6, and 7), media lacking uracil (SX-Ura, where X is glucose, raffinose, or galactose), was used for all steps of the compound profiling protocol to ensure its maintenance throughout the assay.
After yeast delivery, assay plates were incubated under humidified conditions at 30° C. for 24 to 40 h. ApoE4 rescue experiments were stopped at 24 h, aSyn experiments at 40 h, Ole1 at 24 h, and SCD1/SCD5 at 40 h. The growth of yeast was monitored by reading the ODsoo of each well using a microplate reader (Perkin Elmer EnVision™).
In general, IC50 refers to the point on the concentration scale where inhibition reaches its midpoint. Lower therefore signals inhibition by little substance. `CC(C)n1ncc2ccc(-c3noc([C@H]4CC[C@H](N)CC4)n3)cc21` [Compound 596]: the half-inhibitory concentration (IC50) was more than 45 µM.
For `CC(C)n1ncc2ccc(-c3noc(C4=C(F)CN(C(=O)OC(C)(C)C)CC4)n3)cc21` [Compound 510], the midpoint of inhibition, the IC50, lay at 4.16 µM.
In turn, `N#Cc1cccc(N2C[C@H](C(=O)N3CCC(c4nc(-c5ccc6cnn(C7COC7)c6c5)no4)CC3)CC2=O)c1` [Compound 600] returned an IC50 of more than 45 µM.
Molecule `CC(C)n1ncc2ccc(-c3noc(C4CCN(C(=O)c5ccc(Cl)cn5)CC4)n3)cc21` [Compound 586] registered a concentration for half-maximal inhibition (IC50) of 3.77 µM.
Consider `Cc1noc2cc(-c3noc(C4CCN(C(=O)CC5(C)CC5)CC4)n3)ccc12` [Compound 591], for which the IC50 is more than 45 µM.
The molecule `CC(C)n1ncc2ccc(-c3nc(N4CCN(C(=O)c5ccccc5)CC4)no3)cc21` [Compound 582] registered a half-maximal inhibitory concentration (IC50) of 0.176 µM.
Consider `COC(=O)N1C[C@H]2CN(c3nc(-c4ccc5cnn(C(C)C)c5c4)no3)C[C@@H]2C1` [Compound 568], for which the concentration for half-maximal inhibition (IC50) was more than 45 µM.
The molecule `COc1ccc(S(=O)(=O)N2CCC(c3nc(-c4ccc5cnn(C(C)C)c5c4)no3)CC2)c(Br)c1` [Compound 539] registered a 50% inhibitory concentration (IC50) of more than 45 µM.
For `CC(C)n1ncc2ccc(-c3noc(C4CCN(S(=O)(=O)c5ccccc5Cl)CC4)n3)cc21` [Compound 540], the IC50 is more than 45 µM.
For `CC(=O)N[C@H]1CC[C@H](c2nc(-c3ccc4cnn(C(C)C)c4c3)no2)CC1` [Compound 535], the IC50 was more than 45 µM.
Regarding `CC(C)CS(=O)(=O)N1CCC(c2nc(-c3ccc4cnn(C(C)C)c4c3)no2)CC1` [Compound 565], the 50% inhibitory concentration (IC50) is more than 45 µM.
Regarding `O=C(CC1CC1)N1CCC(c2nc(-c3ccc4cnn(C5COC5)c4c3)no2)CC1` [Compound 558], the IC50 is 1.07 µM.
Consider `CC(C)n1ncc2ccc(-c3noc([C@H]4CC[C@@H](N)CC4)n3)cc21` [Compound 536], for which the 50% inhibitory concentration (IC50) is more than 45 µM.
`CC(C)n1ncc2ccc(-c3noc(N4C[C@H]5CN(C(=O)CC(C)(C)C)C[C@H]5C4)n3)cc21` [Compound 497] had a half-maximal inhibitory concentration (IC50) of 11.3 µM.
Take `COCC(=O)N1CCN(c2nc(-c3ccc4cnn(C(C)C)c4c3)no2)CC1` [Compound 595]: the IC50 was more than 45 µM.
The molecule `Cc1nn(C)c2cc(-c3noc(C4CCN(C(=O)CC5CN(C(=O)OC(C)(C)C)C5)CC4)n3)ccc12` [Compound 502] came in with an IC50 of 38.9 µM.
For `CC(C)n1ncc2ccc(-c3noc(N4CCN(C(=O)OCC(F)(F)F)CC4)n3)cc21` [Compound 593], the IC50 was more than 45 µM.
On to `CC(C)n1ncc2ccc(-c3noc(C4CCN(C(=O)c5cccs5)CC4)n3)cc21` [Compound 574], for which the IC50 was found to be 2.28 µM.
Consider `CC(C)n1ncc2ccc(-c3noc(N4CC5(CCN(C(=O)OC(C)(C)C)CC5)C4)n3)cc21` [Compound 555], for which the concentration for half-maximal inhibition (IC50) is more than 45 µM.
With `Cc1noc2cc(-c3noc(C4CCN(C(=O)OC5(C)CC5)CC4)n3)ccc12` [Compound 590], the IC50 is more than 45 µM.
On the same count and under the same terms, then `CC(C)n1ncc2ccc(-c3noc([C@@H]4[C@@H]5CN(C(=O)OC(C)(C)C)C[C@@H]54)n3)cc21` [Compound 498], with more than 45 µM; and `O=C(c1ccccc1Cl)N1CCC(c2nc(-c3ccc4cnn(C5COC5)c4c3)no2)CC1` [Compound 562], with 1.5 µM.
Molecule `CC(C)n1ncc2ccc(-c3noc(C4CCN(C(=O)c5nccs5)CC4)n3)cc21` [Compound 549] yielded a 50% inhibitory concentration (IC50) of 1.21 µM.
The molecule `CC(C)n1ncc2ccc(-c3noc(C4CCN(C(=O)c5ccc(Cl)cc5F)CC4)n3)cc21` [Compound 533] gave an IC50 of 3.33 µM.
In turn, `CC(C)n1ncc2ccc(-c3noc(C4CCN(C(=O)[C@@H]5CC(=O)N(c6cccc(C#N)c6)C5)CC4)n3)cc21` [Compound 528] returned a half-maximal inhibitory concentration (IC50) of more than 45 µM.
Turning to `CC1(OC(=O)N2CCC(c3nc(-c4ccc5cnn(C6COC6)c5c4)no3)CC2)CC1` [Compound 576], the half-inhibitory concentration (IC50) worked out at 0.028 µM.
`COC(=O)N1CCC2(CC1)CN(c1nc(-c3ccc4cnn(C(C)C)c4c3)no1)C2` [Compound 570] yielded an IC50 of 26.3 µM.
As to `CC(C)n1ncc2ccc(-c3nc(C4CCN(C(=O)CC5(C)CC5)CC4)no3)cc21` [Compound 546], half-maximal inhibition (IC50) required 0.019 µM.
For the molecule `O=C(NCC(=O)N1CCC(c2nc(-c3ccc4cnn(C5COC5)c4c3)no2)CC1)c1ccccc1` [Compound 598], the IC50 was more than 45 µM.

The test is the same for the next values; noted with them: yeast strain expressing human SCD5 as sole desaturase; Table 8.
Turning to `O=C(C1CCC1)N1CCC(c2noc(-c3cc(C4CCOC4)c(F)cn3)n2)CC1` (stereo not drawn) [Compound 1297], the concentration for half-maximal inhibition (IC50) stood at 0.16 µM.
`CC(C)(C)OC(=O)N1CCC(c2noc(-c3ccnc(N4CCC(F)(F)C4)c3)n2)CC1` [Compound 1200] yielded a half-maximal inhibitory concentration (IC50) of 0.21 µM.
On the same count and under the same terms, as for `CCC(=O)N1CCC(c2noc(-c3cc(N4CCC(F)(F)C4)c(F)cn3)n2)CC1` [Compound 1311], the figure is 7.74 µM; as for `CC1(OC(=O)N2CCC(c3noc(-c4cc(C5CCOC5)ccn4)n3)CC2)CC1` (stereo not drawn) [Compound 1205], 0.33 µM.
Consider `CC(C)(C)OC(=O)N1CCC(c2noc(-c3cc(N4CCC(F)(F)C4)ccn3)n2)CC1` [Compound 1286], for which the midpoint of inhibition, the IC50, lay at 4.29 µM.
With `O=C(C1CC1)N1CCC(c2noc(-c3ccc(F)c(N4CCOCC4)c3)n2)CC1` [Compound 1259], the IC50 turned out to be 0.04 µM.
In turn, `O=C(C1CC1)N1CCC(c2noc(-c3ccnc(O[C@@H]4CCOC4)c3)n2)CC1` [Compound 1255] registered an IC50 of 1.88 µM.
Turning to `CC1(OC(=O)N2CCC(c3noc(-c4ccnc(-c5ccon5)c4)n3)CC2)CC1` [Compound 1306], half-maximal inhibition (IC50) was put at 5.38 µM.
Still for that read-out and setting: as for `CCS(=O)(=O)N1CCC(c2noc(-c3ccc4cnn(C5COC5)c4c3)n2)CC1` [Compound 1216], the figure is 0.33 µM; as for `CC(C)(C)OC(=O)N1CCN(c2cc(-c3ccc4cnn(C5COC5)c4n3)on2)CC1` [Compound 1228], 1.95 µM; as for `CC(C)(C)OC(=O)N1CCC(c2noc(-c3ccc(C#N)c(N4CCOCC4)c3)n2)CC1` [Compound 1290], 0.52 µM.
The same measure, in the same setting: as for `CC(C)C(=O)N1CCC(c2noc(-c3cc(F)c(F)c(N4CCOCC4)c3)n2)CC1` [Compound 1304], the figure is 11.9 µM.
With `O=C(C1CC1)N1CCC(c2noc(-c3cnc4cnn(C5CCOC5)c4c3)n2)CC1` (stereo not drawn) [Compound 1251], the IC50 worked out at 0.03 µM.
In turn, `Cn1cc2c(n1)CN(c1nc(C3CCN(C(=O)OC(C)(C)C)CC3)no1)CC2` [Compound 1272] registered an IC50 of 7.54 µM.
As for `CC(C)(C)OC(=O)N1CCC(c2noc(-c3cc(N4CCOCC4)ccn3)n2)CC1` [Compound 1288], the midpoint of inhibition, the IC50, lay at 5.55 µM.
Still for that read-out and setting: then `CC(C)C(=O)N1CCC(c2noc(-c3ccc(C#N)c(N4CCOCC4)c3)n2)CC1` [Compound 1291], with 0.65 µM; and `O=C(C1CCC1)N1CCC(c2noc(-c3ccnc(N4CCC(F)(F)C4)c3)n2)CC1` [Compound 1246], with 0.4 µM; and `CC1(OC(=O)N2CCC(c3noc(-c4cc(C5CCOC5)c(F)cn4)n3)CC2)CC1` (stereo not drawn) [Compound 1298], with 0.03 µM.
In turn, `CC(C)(C)OC(=O)N1CCC(c2noc(-c3ccc(OC4COC4)nc3)n2)CC1` [Compound 1249] registered an IC50 of 4.91 µM.
Take `O=C(C1CC1)N1CCC(c2noc(-c3cc(C4CCOC4)c(F)cn3)n2)CC1` (stereo not drawn) [Compound 1296]: the half-maximal inhibitory concentration (IC50) was 0.25 µM.
`CC(C)(C)OC(=O)N1CCC(c2noc(-c3cc(F)c(F)c(N4CCOCC4)c3)n2)CC1` [Compound 1301]: the IC50 amounted to 5.18 µM.
For the molecule `CCC(=O)N1CCC(c2noc(-c3cc(N4CCOCC4)ccn3)n2)CC1` [Compound 1300], the half-inhibitory concentration (IC50) is 0.06 µM.
As for `COC(=O)N1CCN(c2cc(-c3ccc4cnn(C5COC5)c4n3)on2)CC1` [Compound 1238], the IC50 is 24.6 µM.
Consider `CC(C)C(=O)N1CCC(c2noc(-c3cncc(C4CCOC4)c3)n2)CC1` (stereo not drawn) [Compound 1199], for which the IC50 came out at 3.78 µM.
Take `O=C(C1CC1)N1CCC(c2noc(-c3cc(C4CCOC4)ccn3)n2)CC1` (stereo not drawn) [Compound 1278]: the IC50 amounted to 2.73 µM.

The values are drawn from patent US11873298B2, “Compounds and uses thereof” (JANSSEN PHARMACEUTICA NV, priority 2017, dated 2024).
